Test results from patent US20230265116A1, “DEGRADATION OF (EGFR) BY CONJUGATION OF EGFR INHIBITORS WITH E3 LIGASE LIGAND AND METHODS OF USE” (BEIGENE, LTD., priority 2020, published 2023).
Structures can show the parent of a compound that is named as a salt.

Tests used:
Assay type in all cases: cell-based
[1] = tested on: EGFR Del19/T790M/C797S (BaF3-DTC cells); test: EGFR degradation HTRF assay, BaF3-DTC cells; details: 16h treatment
Procedure, shortened: (§1)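 EGFR remaining after a 16 h, 37 °C exposure (8 doses, 5-fold steps from 10 uM final, 0.2% DMSO) was quantified by HTRF antibodies in cell lysate. Percent inhibition relative to DMSO control was fitted by four-parameter logistic to give DC50; Dmax denotes maximal degradation.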

[2] = biological target: T1, EGFR (HCC827 cells) (Homo sapiens, UniProt P00533, DEL746-750); test: EGFR degradation HTRF assay, HCC827 cells; details: HCC827, 16h treatment; for Dmax: maximum percentage of degradation
T1 construct: endogenous in cells; host or cells: HCC827
Procedure, shortened: as §1

[3] = biological target: T2, EGFR L858R/T790M (H1975-clone #36, homozygous) (Homo sapiens, UniProt P00533, L858R/T790M); test: EGFR degradation HTRF assay, H1975-clone #36 cells; details: H1975 #36, 16h treatment; for Dmax: NCI-H1975, maximum percentage of degradation
T2 construct: designed to specifically target WT EGFR but preserve the L858R/T790M copy; host or cells: H1975-clone #36
Procedure, shortened: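 H1975 clone #36, made homozygous for L858R/T790M EGFR by knockout of the WT allele, treated 16 h at 37 °C with compound in 0.2% DMSO medium. Eight doses from 10 uM, 5-fold dilutions. EGFR measured by HTRF in lysates. DC50 and Dmax fitted against DMSO controls.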

[4] = biological target: T3, EGFR L858R/T790M/C797S (BaF3-LTC cells) (Homo sapiens, UniProt P00533, C797S/L858R/T790M); test: EGFR degradation HTRF assay, BaF3-LTC cells; details: BaF3-LTC, 16h treatment; for Dmax: maximum percentage of degradation, read-out: LTC Dmax (%)
T3 construct: expressed in transfected cells; host or cells: BaF3
Procedure, shortened: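 Cells treated 16 h at 37 °C, 5% CO2 in medium with 0.2% DMSO; top final concentration 10 uM, 5-fold dilution, 8 doses. Lysates read by HTRF (665/620 nm); degradation % versus DMSO high control, DC50 from four-parameter fit, Dmax as maximal degradation.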

T2 sequence (P00533 25-1210 T790M/L858R): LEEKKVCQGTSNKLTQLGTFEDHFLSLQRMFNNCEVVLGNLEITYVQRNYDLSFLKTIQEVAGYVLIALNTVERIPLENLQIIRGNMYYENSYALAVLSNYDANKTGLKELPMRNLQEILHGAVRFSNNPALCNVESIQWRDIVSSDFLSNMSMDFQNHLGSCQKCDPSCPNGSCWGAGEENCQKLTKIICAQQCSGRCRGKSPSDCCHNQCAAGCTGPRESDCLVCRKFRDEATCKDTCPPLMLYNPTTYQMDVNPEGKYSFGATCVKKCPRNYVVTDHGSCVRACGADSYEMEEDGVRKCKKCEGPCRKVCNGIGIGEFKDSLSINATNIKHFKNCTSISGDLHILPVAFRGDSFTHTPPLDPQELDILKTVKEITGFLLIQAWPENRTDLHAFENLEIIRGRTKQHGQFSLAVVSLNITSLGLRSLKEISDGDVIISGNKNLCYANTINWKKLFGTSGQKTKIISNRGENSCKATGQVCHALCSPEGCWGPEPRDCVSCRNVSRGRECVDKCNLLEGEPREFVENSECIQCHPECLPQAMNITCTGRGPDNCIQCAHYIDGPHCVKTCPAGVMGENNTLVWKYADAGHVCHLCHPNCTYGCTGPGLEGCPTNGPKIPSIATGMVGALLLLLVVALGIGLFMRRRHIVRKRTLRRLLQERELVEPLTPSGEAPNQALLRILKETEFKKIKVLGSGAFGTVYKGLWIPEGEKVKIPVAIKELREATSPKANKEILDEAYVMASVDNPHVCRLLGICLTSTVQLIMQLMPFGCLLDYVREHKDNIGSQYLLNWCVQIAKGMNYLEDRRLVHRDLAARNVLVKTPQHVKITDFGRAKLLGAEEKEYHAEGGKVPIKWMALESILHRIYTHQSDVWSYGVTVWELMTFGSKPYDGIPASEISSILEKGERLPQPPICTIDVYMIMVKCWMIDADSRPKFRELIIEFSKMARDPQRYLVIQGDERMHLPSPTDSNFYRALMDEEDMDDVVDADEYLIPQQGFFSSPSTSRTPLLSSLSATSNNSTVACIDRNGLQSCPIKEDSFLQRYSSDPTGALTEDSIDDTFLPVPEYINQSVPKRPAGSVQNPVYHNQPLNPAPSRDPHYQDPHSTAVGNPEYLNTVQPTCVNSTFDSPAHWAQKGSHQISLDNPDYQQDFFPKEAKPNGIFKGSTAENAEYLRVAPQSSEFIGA
T1 sequence (P00533 with tags, fused parts or gaps DEL746-750): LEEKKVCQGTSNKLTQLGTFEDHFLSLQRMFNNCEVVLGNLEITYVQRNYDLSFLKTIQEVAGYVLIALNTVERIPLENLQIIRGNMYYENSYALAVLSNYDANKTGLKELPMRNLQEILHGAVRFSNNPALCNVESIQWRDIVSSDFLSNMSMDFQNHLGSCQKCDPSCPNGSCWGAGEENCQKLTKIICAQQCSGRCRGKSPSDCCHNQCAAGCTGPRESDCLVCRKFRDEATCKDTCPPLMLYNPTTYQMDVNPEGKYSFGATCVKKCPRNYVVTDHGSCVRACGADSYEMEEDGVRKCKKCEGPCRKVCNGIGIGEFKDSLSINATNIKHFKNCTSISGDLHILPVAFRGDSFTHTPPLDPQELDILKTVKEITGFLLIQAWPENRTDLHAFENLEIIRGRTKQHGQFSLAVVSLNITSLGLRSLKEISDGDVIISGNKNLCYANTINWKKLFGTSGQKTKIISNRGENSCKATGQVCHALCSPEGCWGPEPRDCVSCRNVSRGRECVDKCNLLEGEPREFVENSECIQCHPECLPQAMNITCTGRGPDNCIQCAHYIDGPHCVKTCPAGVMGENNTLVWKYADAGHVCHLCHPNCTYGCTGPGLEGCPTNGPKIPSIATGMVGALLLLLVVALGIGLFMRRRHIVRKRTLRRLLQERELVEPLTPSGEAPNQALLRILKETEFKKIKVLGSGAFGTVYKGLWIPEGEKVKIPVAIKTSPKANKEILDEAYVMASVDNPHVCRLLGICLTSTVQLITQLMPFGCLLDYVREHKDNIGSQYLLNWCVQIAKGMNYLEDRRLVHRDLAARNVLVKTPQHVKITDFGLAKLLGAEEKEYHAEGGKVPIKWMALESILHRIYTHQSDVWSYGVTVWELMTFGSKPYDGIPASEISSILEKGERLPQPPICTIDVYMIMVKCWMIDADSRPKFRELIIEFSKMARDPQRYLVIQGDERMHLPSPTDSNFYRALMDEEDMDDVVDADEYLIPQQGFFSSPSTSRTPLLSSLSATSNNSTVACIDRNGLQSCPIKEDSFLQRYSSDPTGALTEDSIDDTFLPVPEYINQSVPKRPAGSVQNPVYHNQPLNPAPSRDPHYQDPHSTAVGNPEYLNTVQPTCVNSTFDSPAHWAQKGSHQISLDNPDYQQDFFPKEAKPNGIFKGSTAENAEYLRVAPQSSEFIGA
T3 sequence (P00533 25-1210 T790M/C797S/L858R): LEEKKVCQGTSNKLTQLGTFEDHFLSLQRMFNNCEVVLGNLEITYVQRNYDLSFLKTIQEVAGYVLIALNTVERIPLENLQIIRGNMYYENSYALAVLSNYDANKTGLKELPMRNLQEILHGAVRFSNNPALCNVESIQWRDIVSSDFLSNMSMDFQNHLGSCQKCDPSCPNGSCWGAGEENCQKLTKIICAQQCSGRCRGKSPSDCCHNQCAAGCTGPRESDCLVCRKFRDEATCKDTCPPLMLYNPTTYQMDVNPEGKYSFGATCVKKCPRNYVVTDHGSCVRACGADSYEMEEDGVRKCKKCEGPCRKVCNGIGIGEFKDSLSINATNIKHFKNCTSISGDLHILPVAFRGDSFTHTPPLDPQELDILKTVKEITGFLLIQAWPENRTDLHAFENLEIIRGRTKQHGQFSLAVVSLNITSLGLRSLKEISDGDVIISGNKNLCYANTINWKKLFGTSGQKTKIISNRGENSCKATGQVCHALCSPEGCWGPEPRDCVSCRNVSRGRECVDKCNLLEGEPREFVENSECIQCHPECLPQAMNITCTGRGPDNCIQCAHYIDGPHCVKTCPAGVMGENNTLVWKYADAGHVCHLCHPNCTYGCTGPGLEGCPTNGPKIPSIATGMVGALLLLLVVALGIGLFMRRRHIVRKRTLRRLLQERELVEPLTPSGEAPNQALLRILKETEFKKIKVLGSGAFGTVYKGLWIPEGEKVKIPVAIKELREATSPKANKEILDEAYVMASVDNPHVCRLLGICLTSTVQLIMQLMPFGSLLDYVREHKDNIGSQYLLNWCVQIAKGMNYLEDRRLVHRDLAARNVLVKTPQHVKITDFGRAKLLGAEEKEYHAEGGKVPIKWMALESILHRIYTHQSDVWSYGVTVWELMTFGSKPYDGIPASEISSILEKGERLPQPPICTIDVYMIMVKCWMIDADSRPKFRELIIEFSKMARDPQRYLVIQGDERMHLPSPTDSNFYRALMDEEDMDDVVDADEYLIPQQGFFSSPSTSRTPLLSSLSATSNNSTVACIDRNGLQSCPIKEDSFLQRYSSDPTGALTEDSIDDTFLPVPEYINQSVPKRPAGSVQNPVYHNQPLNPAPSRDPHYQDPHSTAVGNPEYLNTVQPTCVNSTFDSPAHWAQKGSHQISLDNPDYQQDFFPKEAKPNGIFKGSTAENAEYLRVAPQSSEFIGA

SMILES	DC50 ([1]; read-out: DTC DC50) [nM]	DC50 [2] [nM]	Dmax [2] [%]	DC50 [3] [nM]	Dmax [3] [%]	Dmax [4] [%]	DC50 ([4]; read-out: LTC DC50) [nM]	DTC Dmax (%) ([1]; maximum percentage of degradation)
CCc1cc(Nc2ncc(Br)c(Nc3ccc4nccnc4c3P(C)(C)=O)n2)c(OC)cc1N1CCC(N2CCN(CCc3ccc(C4CCC(=O)NC4=O)c(F)c3F)CC2)CC1 (centres unmarked) [Example 10, 3-(4-(2-(4-(1-(4-((5-bromo-4-((5-(dimethylphosphoryl)quinoxalin-6-yl)amino)pyrimidin-2-yl)amino)-2-ethyl-5-methoxyphenyl)piperidin-4-yl)piperazin-1-yl)ethyl)-2,3-difluorophenyl)piperidine-2,6-dione]	15.4	12.3	83.3	15.9	82.6	88.7	83.3	85.51
CCc1cc(Nc2ncc(Br)c(Nc3ccc4nccnc4c3P(C)(C)=O)n2)c(OC)cc1N1CCC(N2CCN(CCc3cc(F)c(C4CCC(=O)NC4=O)c(F)c3)CC2)CC1 (centres unmarked) [Example 11, 3-(4-(2-(4-(1-(4-((5-bromo-4-((5-(dimethylphosphoryl)quinoxalin-6-yl)amino)pyrimidin-2-yl)amino)-2-ethyl-5-methoxyphenyl)piperidin-4-yl)piperazin-1-yl)ethyl)-2,6-difluorophenyl)piperidine-2,6-dione]		2.84	86.4	5.41	97.4	91.9		
COc1cc(N2CCN(CC3CCN(c4ccc(N5CCC(=O)NC5=O)cc4)CC3)CC2)ccc1Nc1ncc(Cl)c(Nc2ccccc2P(C)(C)=O)n1 [Example 115, 1-(4-(4-((4-(4-((5-chloro-4-((2-(dimethylphosphoryl)phenyl)amino)pyrimidin-2-yl)amino)-3-methoxyphenyl)piperazin-1-yl)methyl)piperidin-1-yl)phenyl)dihydropyrimidine-2,4(1H,3H)-dione]		103	83.4	641	74.7			
COc1cc(N2CCN(C3CN(C(=O)c4cnc(C(=O)Nc5ccc(C6CCC(=O)NC6=O)cc5)cn4)C3)CC2)ccc1Nc1ncc(Cl)c(Nc2ccccc2P(C)(C)=O)n1 (centres unmarked) [Example 116, 5-(3-(4-(4-((5-chloro-4-((2-(dimethylphosphoryl)phenyl)amino)pyrimidin-2-yl)amino)-3-methoxyphenyl)piperazin-1-yl)azetidine-1-carbonyl)-N-(4-(2,6-dioxopiperidin-3-yl)phenyl)pyrazine-2-carboxamide]		17.9	75.4	6.63	62			
COc1cc(N2CCC(N3CCN(C(=O)C[C@H](NC(=O)[C@@H]4C[C@@H](O)CN4C(=O)[C@@H](c4cc(C)no4)C(C)C)c4ccc(-c5scnc5C)cc4)CC3)CC2)ccc1Nc1ncc(Cl)c(Nc2ccccc2P(C)(C)=O)n1 [Example 117, (2S,4R)—N—((S)-3-(4-(1-(4-((5-chloro-4-((2-(dimethylphosphoryl)phenyl)amino)pyrimidin-2-yl)amino)-3-methoxyphenyl)piperidin-4-yl)piperazin-1-yl)-1-(4-(4-methylthiazol-5-yl)phenyl)-3-oxopropyl)-4-hydroxy-1-((R)-3-methyl-2-(3-methylisoxazol-5-yl)butanoyl)pyrrolidine-2-carboxamide]		17	76.2	67.4	86.7			
COc1cc(N2CCC(N3CCN(CCCC4CN(c5ccc6c(c5)C(=O)N(C5CCC(=O)NC5=O)C6=O)C4)CC3)CC2)ccc1Nc1ncc(Cl)c(Nc2ccccc2P(C)(C)=O)n1 (centres unmarked) [Example 118, 5-(3-(3-(4-(1-(4-((5-chloro-4-((2-(dimethylphosphoryl)phenyl)amino)pyrimidin-2-yl)amino)-3-methoxyphenyl)piperidin-4-yl)piperazin-1-yl)propyl)azetidin-1-yl)-2-(2,6-dioxopiperidin-3-yl)isoindoline-1,3-dione]		22.7	76	24.7	82.4			
COc1cc(N2CCC(N3CCN(CCc4ccc(C5CCC(=O)NC5=O)cc4)CC3)CC2)ccc1Nc1ncc(Cl)c(Nc2ccccc2N(C)S(C)(=O)=O)n1 (centres unmarked) [Example 119, N-(2-((5-chloro-2-((4-(4-(4-(4-(2,6-dioxopiperidin-3-yl)phenethyl)piperazin-1-yl)piperidin-1-yl)-2-methoxyphenyl)amino)pyrimidin-4-yl)amino)phenyl)-N-methylmethane sulfonamide]		12.8	85.3	9.02	83.9			
COc1cc(N2CCN(C3CCN(CCc4ccc(C5CCC(=O)NC5=O)cc4)CC3)CC2)ccc1Nc1ncc(Cl)c(Nc2ccccc2N(C)S(C)(=O)=O)n1 (centres unmarked) [Example 120, N-(2-((5-chloro-2-((4-(4-(1-(4-(2,6-dioxopiperidin-3-yl)phenethyl)piperidin-4-yl)piperazin-1-yl)-2-methoxyphenyl)amino)pyrimidin-4-yl)amino)phenyl)-N-methylmethanesulfonamide hydrochloride]		14.2	86.4	5.22	91.6			
COc1cc(N2CCC(N3CCN(CCC4CCN(c5ccc(N6CCC(=O)NC6=O)c(F)c5)CC4)CC3)CC2)ccc1Nc1ncc(Cl)c(Nc2ccccc2N(C)S(C)(=O)=O)n1 [Example 125, N-(2-((5-chloro-2-((4-(4-(4-(2-(1-(4-(2,4-dioxotetrahydropyrimidin-1(2H)-yl)-3-fluorophenyl)piperidin-4-yl)ethyl)piperazin-1-yl)piperidin-1-yl)-2-methoxyphenyl)amino)pyrimidin-4-yl)amino)phenyl)-N-methylmethanesulfonamide]		103	73.5	> 10000	27.2			

Second part, led by results:

DC50 ([1]; read-out: DTC DC50) [nM]	DC50 [2] [nM]	Dmax [2] [%]	DC50 [3] [nM]	Dmax [3] [%]	Dmax [4] [%]	DC50 ([4]; read-out: LTC DC50) [nM]	SMILES	DTC Dmax (%) ([1]; maximum percentage of degradation)
	19.1	84	2.61	83.9			COc1cc(N2CCC(N3CCN(CCc4ccc(NC5CCC(=O)NC5=O)cc4)CC3)CC2)ccc1Nc1ncc(Cl)c(Nc2ccccc2N(C)S(C)(=O)=O)n1 (centres unmarked) [Example 126, N-(2-((5-chloro-2-((4-(4-(4-(4-((2,6-dioxopiperidin-3-yl)amino)phenethyl)piperazin-1-yl)piperidin-1-yl)-2-methoxyphenyl)amino)pyrimidin-4-yl)amino)phenyl)-N-methylmethanesulfonamide]	
	35.9	71.4	11.9	64.7			COc1cc(N2CCC(N3CCN(CCCOc4ccc(OC5CCC(=O)NC5=O)cc4)CC3)CC2)ccc1Nc1ncc(Cl)c(Nc2ccccc2N(C)S(C)(=O)=O)n1 (centres unmarked) [Example 127, N-(2-((5-chloro-2-((4-(4-(4-(3-(4-((2,6-dioxopiperidin-3 yl)oxy)phenoxy)propyl)piperazin-1-yl)piperidin-1-yl)-2-methoxyphenyl)amino)pyrimidin-4-yl)amino)phenyl)-N-methylmethanesulfonamide]	
	11.1	87.2	9.29	85.4			COc1cc(N2CCC(N3CCN(C(=O)C4CCN(CC5CCN(c6ccc7c(c6)C(=O)N(C6CCC(=O)NC6=O)C7=O)CC5)CC4)CC3)CC2)ccc1Nc1ncc(Cl)c(Nc2ccccc2N(C)S(C)(=O)=O)n1 (centres unmarked) [Example 129, N-(2-((5-chloro-2-((4-(4-(4-(1-((1-(2-(2,6-dioxopiperidin-3-yl)-1,3-dioxoisoindolin-5-yl)piperidin-4-yl)methyl)piperidine-4-carbonyl)piperazin-1-yl)piperidin-1-yl)-2-methoxyphenyl)amino)pyrimidin-4-yl)amino)phenyl)-N-methylmethanesulfonamide]	
	15.1	82.2	3.58	87			COc1cc(N2CCC(N3CCN(CCc4ccc(C5CCC(=O)NC5=O)cc4)CC3)CC2)ccc1Nc1ncc(Cl)c(Nc2ccccc2NS(C)(=O)=O)n1 (centres unmarked) [Example 138, N-(2-((5-chloro-2-((4-(4-(4-(4-(2,6-dioxopiperidin-3-yl)phenethyl)piperazin-1-yl)piperidin-1-yl)-2-methoxyphenyl)amino)pyrimidin-4-yl)amino)phenyl)methanesulfonamide]	
	8.56	88.9	5.24	73.3			COc1cc(N2CCC(N3CCN(CCc4ccc(NC5CCC(=O)NC5=O)cc4)CC3)CC2)ccc1Nc1ncc(Cl)c(Nc2ccccc2NS(C)(=O)=O)n1 (centres unmarked) [Example 140, N-(2-((5-chloro-2-((4-(4-(4-(4-((2,6-dioxopiperidin-3-yl)amino)phenethyl)piperazin-1-yl)piperidin-1-yl)-2-methoxyphenyl)amino)pyrimidin-4-yl)amino)phenyl)methanesulfonamide]	
	12.1	73	5.43	56.2			COc1cc(N2CCC(N3CCN(CCCOc4ccc(NC5CCC(=O)NC5=O)cc4)CC3)CC2)ccc1Nc1ncc(Cl)c(Nc2ccccc2NS(C)(=O)=O)n1 (centres unmarked) [Example 143, N-(2-((5-chloro-2-((4-(4-(4-(3-(4-((2,6-dioxopiperidin-3-yl)amino)phenoxy)propyl)piperazin-1-yl)piperidin-1-yl)-2-methoxyphenyl)amino)pyrimidin-4-yl)amino)phenyl) methanesulfonamide]	
